Experimental data from the NIST ThermoML archive (doi:10.1021/acs.jced.9b00237).

Test: xn = mol fraction of the nth substance listed
Conditions: 100 kPa, Liquid; for viscosity: Concentric cylinders viscometry; for mass density: Vibrating tube method

C[N+](C)(C)CCO.[Cl-] [choline chloride] + Oc1ccccc1
Conditions	mass density, 293.15 K [kg/m3]	mass density, 303.15 K [kg/m3]	mass density, 313.15 K [kg/m3]	mass density, 323.15 K [kg/m3]	mass density, 333.15 K [kg/m3]	viscosity, 293.15 K [mPa·s]	viscosity, 303.15 K [mPa·s]	viscosity, 313.15 K [mPa·s]	viscosity, 323.15 K [mPa·s]	viscosity, 333.15 K [mPa·s]
x1 = 0.2	1093	1087	1080	1073	1067	39	24.67	16.69	11.83	8.825
x1 = 0.25	1096	1089	1083	1077	1071	58.16	35.76	23.53	16.42	12.02
